Here are results for 28 compounds from ChEMBL document CHEMBL5154925, “Design and Optimization of Thienopyrimidine Derivatives as Potent and Selective PI3Kδ Inhibitors for the Treatment of B-Cell Malignancies” (J Med Chem, 2022).

In data set [1] the target is T1, Phosphatidylinositol 4,5-bisphosphate 3-kinase catalytic subunit delta isoform (Homo sapiens, UniProt O00329).
T1 sequence (O00329 whole entry): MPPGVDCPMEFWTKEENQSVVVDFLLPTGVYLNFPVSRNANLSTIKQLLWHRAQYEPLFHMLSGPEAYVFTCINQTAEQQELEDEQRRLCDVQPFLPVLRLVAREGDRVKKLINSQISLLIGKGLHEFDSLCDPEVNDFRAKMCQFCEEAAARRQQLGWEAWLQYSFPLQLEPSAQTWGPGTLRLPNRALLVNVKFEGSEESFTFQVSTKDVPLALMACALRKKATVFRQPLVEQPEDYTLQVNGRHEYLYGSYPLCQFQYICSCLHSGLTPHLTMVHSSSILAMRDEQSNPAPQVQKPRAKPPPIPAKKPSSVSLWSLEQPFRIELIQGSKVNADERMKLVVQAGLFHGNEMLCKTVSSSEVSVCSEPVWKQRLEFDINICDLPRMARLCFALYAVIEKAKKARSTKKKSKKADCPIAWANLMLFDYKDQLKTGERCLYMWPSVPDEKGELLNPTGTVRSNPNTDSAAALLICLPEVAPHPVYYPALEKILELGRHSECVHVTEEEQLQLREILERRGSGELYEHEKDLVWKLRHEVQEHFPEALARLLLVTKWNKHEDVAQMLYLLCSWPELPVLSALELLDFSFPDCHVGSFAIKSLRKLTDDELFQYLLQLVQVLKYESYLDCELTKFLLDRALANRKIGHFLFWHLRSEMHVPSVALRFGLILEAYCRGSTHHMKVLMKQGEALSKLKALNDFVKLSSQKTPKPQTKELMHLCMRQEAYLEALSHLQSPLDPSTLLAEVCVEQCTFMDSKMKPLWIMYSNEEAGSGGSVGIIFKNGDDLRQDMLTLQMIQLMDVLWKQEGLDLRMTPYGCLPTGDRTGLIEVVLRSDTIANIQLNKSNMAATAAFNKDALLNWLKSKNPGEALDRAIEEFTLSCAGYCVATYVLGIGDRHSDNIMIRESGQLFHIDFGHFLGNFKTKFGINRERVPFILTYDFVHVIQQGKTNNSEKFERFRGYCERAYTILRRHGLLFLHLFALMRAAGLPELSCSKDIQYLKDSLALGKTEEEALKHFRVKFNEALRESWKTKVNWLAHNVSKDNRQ
The data set can be described thus: Inhibition of PI3Kdelta (unknown origin) using PIP2 as substrate measured after 1 hr in presence of ATP by ADP-glo luminescence assay.

In data set [2] the target is Phosphatidylinositol 4,5-bisphosphate 3-kinase catalytic subunit alpha isoform (Homo sapiens, UniProt P42336). The data set can be described thus: Inhibition of PI3Kalpha (unknown origin) using PIP2 as substrate measured after 1 hr in presence of ATP by ADP-glo luminescence assay. In general terms: ADP-Glo first removes unused ATP, then detects ADP through luciferase.
Sequence of Phosphatidylinositol 4,5-bisphosphate 3-kinase catalytic subunit alpha isoform (Homo sapiens, UniProt P42336) (P42336 whole entry, canonical isoform): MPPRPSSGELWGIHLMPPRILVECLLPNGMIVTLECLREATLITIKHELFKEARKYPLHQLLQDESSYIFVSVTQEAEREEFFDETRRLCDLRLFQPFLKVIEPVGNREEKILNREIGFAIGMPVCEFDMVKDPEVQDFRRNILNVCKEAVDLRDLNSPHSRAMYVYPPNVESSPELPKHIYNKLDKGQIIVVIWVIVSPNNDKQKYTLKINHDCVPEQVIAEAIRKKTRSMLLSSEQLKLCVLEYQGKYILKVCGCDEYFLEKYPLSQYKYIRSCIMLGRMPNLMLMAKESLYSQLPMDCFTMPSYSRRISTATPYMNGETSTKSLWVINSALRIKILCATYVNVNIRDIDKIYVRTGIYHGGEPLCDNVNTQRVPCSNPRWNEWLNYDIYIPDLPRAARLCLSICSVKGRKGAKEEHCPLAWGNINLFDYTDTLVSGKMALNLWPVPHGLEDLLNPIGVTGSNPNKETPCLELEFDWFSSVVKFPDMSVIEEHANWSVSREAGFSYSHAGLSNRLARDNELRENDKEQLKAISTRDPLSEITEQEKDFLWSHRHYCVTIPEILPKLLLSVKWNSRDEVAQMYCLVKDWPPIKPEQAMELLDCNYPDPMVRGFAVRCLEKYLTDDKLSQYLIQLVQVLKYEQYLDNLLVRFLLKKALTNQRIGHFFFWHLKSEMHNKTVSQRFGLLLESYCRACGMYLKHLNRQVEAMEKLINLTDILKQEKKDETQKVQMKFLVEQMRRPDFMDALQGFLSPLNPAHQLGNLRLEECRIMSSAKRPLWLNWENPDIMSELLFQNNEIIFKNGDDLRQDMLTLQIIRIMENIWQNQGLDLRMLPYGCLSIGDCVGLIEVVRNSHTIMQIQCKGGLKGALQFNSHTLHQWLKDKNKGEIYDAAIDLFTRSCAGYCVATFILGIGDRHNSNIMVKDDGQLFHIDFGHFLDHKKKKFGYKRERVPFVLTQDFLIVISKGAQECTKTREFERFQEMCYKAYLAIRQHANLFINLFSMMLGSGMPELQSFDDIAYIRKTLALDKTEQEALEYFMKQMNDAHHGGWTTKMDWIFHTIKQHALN

The nature of data set [3]: Microsomal stability in mouse liver microsomes assessed as intrinsic clearance. It is filed as ADME, Microsome. The note with it: read-out: CLH. In general terms: Microsomes from liver hold many membrane-bound enzymes, among them those of drug oxidation.
The target in data set [4] is Phosphatidylinositol 4,5-bisphosphate 3-kinase catalytic subunit gamma isoform (Homo sapiens, UniProt P48736). The data set can be described thus: Inhibition of PI3Kgamma (unknown origin) using PIP2 as substrate measured after 1 hr in presence of ATP by ADP-glo luminescence assay.
Data set [5] has as its target Phosphatidylinositol 4,5-bisphosphate 3-kinase catalytic subunit gamma isoform (Mus musculus, UniProt Q9JHG7). As to the kind of experiment: Inhibition of PI3Kgamma in C5a stimulated mouse RAW264.7 cells incubated for 10 mins by AlphaLisa assay. Format: cell-based.
A short description of data set [6]: Plasma protein binding in mouse. It is filed as ADME, cell-free. The note with it: read-out: PPB (converted).
Data set [7] in a line: Solubility of the compound in FaSSIF. It is filed as physicochemical.
Data set [8] in a line: Microsomal stability in mouse liver microsomes assessed as half life. It is filed as ADME, Microsome.
The target of data set [9] is T2, Phosphatidylinositol 4,5-bisphosphate 3-kinase catalytic subunit beta isoform (Homo sapiens, UniProt P42338). As to the kind of experiment: Inhibition of PI3Kbeta (unknown origin) using PIP2 as substrate measured after 1 hr in presence of ATP by ADP-glo luminescence assay.
T2 sequence (P42338 whole entry, canonical isoform): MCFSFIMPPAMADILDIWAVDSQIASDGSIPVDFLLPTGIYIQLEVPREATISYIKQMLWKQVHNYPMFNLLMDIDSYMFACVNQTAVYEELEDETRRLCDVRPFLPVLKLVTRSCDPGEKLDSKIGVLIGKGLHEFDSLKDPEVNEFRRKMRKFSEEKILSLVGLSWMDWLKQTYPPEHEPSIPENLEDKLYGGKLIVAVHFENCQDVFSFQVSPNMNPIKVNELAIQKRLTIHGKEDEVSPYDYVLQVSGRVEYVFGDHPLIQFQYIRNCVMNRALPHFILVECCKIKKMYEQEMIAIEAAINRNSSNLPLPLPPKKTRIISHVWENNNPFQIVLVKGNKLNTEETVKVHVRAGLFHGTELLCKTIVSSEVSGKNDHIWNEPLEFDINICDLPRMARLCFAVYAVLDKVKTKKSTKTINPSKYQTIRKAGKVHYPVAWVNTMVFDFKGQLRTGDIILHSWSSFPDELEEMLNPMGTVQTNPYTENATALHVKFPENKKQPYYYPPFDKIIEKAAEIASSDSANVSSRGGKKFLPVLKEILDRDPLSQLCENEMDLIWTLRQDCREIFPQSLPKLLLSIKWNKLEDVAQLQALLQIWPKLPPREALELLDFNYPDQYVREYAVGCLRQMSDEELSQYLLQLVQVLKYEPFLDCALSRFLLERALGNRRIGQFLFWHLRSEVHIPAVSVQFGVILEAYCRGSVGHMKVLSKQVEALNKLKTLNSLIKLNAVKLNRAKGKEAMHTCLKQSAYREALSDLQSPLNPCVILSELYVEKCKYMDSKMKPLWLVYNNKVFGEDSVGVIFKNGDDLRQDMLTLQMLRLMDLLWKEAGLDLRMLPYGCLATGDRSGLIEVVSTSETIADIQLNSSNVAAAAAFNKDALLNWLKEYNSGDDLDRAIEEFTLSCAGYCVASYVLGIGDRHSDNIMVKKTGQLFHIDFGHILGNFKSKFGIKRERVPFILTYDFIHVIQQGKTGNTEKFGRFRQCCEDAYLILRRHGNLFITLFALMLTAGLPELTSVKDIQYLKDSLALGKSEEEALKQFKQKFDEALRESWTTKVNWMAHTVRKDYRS
Data set [10] has as its target Phosphatidylinositol 4,5-bisphosphate 3-kinase catalytic subunit alpha isoform (Mus musculus, UniProt P42337). The data set can be described thus: Inhibition of PI3Kalpha in IGF-1 stimulated mouse C2C12 cells incubated for 10 mins by AlphaLISA assay. Format: cell-based. For orientation: Bead proximity is the source of the signal in Alpha formats.
The nature of data set [11]: Solubility of the compound in PBS. Format: physicochemical.
Data set [12] deals with Serine/threonine-protein kinase mTOR (Homo sapiens, UniProt P42345). The data set can be described thus: Inhibition of mTOR (unknown origin).
The target of data set [13] is T2, Phosphatidylinositol 4,5-bisphosphate 3-kinase catalytic subunit beta isoform. The data set can be described thus: Inhibition of PI3Kbeta in LPA stimulated human PC-3 cells incubated for 10 mins by AlphaLISA assay. Format: cell-based.
Data set [14] deals with T1, Phosphatidylinositol 4,5-bisphosphate 3-kinase catalytic subunit delta isoform. The data set can be described thus: Inhibition of PI3Kdelta in IgM stimulated human Raji cells incubated for 10 mins by AlphaLISA assay. Format: cell-based.

One may read the IC50 as the point on the concentration scale where inhibition reaches its midpoint. The solubility is the dissolved amount per volume that the medium holds. One may read the half-life as the time needed for the level to fall by half in the phase considered.

The structures appear in SMILES notation. Values after ≈ are worked out from the molar mass of the structure shown.

Sequence of Phosphatidylinositol 4,5-bisphosphate 3-kinase catalytic subunit gamma isoform (Mus musculus, UniProt Q9JHG7) (Q9JHG7 whole entry, canonical isoform): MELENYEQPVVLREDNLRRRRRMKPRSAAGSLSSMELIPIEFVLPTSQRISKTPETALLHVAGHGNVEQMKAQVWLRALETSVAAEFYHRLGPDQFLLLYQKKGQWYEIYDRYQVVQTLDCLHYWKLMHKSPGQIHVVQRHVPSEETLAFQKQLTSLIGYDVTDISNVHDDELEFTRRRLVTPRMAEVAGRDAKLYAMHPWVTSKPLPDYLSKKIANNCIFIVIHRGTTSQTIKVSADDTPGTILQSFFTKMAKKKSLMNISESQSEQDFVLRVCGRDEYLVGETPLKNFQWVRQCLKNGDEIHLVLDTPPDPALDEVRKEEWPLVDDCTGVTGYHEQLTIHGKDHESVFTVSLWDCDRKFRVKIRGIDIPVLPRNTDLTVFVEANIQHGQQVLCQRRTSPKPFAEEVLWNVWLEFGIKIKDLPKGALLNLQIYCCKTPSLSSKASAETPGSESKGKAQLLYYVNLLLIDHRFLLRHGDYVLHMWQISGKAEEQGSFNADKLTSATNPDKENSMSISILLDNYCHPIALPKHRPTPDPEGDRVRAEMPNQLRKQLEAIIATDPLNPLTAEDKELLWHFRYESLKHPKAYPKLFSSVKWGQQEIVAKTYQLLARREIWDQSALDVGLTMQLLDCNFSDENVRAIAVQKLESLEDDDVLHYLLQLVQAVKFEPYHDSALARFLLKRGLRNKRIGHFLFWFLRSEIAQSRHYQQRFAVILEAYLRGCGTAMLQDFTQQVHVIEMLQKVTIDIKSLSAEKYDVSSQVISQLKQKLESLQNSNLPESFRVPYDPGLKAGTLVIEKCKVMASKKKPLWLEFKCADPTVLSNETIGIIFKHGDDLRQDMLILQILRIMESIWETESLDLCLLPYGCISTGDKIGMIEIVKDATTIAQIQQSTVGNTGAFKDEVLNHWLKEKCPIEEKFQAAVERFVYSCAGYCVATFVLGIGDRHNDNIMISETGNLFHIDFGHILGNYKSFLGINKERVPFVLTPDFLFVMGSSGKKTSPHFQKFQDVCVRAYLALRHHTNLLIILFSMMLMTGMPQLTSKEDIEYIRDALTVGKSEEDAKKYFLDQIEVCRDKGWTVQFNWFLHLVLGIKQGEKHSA
Sequence of Phosphatidylinositol 4,5-bisphosphate 3-kinase catalytic subunit alpha isoform (Mus musculus, UniProt P42337) (P42337 whole entry, canonical isoform): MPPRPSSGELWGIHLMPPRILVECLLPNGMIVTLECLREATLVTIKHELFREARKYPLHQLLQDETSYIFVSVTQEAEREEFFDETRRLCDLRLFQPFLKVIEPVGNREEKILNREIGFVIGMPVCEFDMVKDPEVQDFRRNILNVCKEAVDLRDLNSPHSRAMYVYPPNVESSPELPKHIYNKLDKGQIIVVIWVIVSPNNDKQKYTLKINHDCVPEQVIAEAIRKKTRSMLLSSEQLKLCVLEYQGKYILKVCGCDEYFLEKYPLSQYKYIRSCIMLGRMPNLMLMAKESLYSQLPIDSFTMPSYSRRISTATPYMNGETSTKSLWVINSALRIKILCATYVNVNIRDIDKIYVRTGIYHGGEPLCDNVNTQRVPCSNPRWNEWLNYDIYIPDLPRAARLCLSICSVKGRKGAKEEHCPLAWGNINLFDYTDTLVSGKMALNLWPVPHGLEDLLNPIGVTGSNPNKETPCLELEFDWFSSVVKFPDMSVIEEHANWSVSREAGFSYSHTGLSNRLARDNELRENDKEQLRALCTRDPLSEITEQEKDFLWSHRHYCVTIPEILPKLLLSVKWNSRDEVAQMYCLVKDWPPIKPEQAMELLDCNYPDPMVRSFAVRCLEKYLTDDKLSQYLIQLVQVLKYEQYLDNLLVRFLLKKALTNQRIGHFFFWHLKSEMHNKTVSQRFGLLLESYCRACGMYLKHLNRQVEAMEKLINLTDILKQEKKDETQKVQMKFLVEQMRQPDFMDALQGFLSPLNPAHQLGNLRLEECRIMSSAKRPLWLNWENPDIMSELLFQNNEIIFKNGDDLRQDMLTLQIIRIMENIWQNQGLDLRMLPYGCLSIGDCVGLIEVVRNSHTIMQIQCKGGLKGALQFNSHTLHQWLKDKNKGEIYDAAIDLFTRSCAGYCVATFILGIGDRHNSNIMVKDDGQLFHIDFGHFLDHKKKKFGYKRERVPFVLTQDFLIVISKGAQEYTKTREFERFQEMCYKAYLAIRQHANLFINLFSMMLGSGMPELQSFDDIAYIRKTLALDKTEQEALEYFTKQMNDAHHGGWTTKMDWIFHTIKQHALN

In the case of `COc1cc(-c2cc3c(N[C@H]4CCN(C(=O)c5ccccc5)C4)ncnc3s2)cnc1OC`, the IC50 came out at 0.026 µM in data set [1] and 0.395 µM in data set [2].

As for `COc1cc(-c2cc3c(N[C@H]4CCN(C(=O)C5CC5)C4)ncnc3s2)cnc1OC`, the figures for the half-inhibitory concentration (IC50) in data set [1] and in [2] were 0.0047 µM and 0.154 µM, respectively.

Consider `COc1cc(-c2cc3c(N[C@H]4CCN(C(=O)C(C)(C)C)C4)ncnc3s2)cnc1OC`, for which the results for the IC50 in data set [1] and in data set [2] were 0.053 µM and 0.793 µM, respectively.

Turning to `CCC(=O)N1CC[C@H](Nc2ncnc3sc(-c4ccc(OC)c(OC)c4)cc23)C1`, the IC50 in data set [1] amounted to 0.021 µM; in data set [2], 0.589 µM.

In the case of `COc1cc(-c2cc3c(N[C@H]4CCN(C(=O)C5CCCCC5)C4)ncnc3s2)cnc1OC`, the 50% inhibitory concentration (IC50) amounted to 0.03 µM in [1] and 0.718 µM in [2].

`CCC(=O)N1CC[C@H](Oc2ncnc3sc(-c4cnc(OC)c(OC)c4)cc23)C1`: the IC50 in data set [1] worked out at 0.011 µM; in data set [2], 0.428 µM.

On to `CCCC(=O)N1CC[C@H](Nc2ncnc3sc(-c4cnc(OC)c(OC)c4)cc23)C1`, for which the IC50 in data set [1] was found to be 0.012 µM; in [2] it was 0.363 µM.

`CCC(=O)N1CC[C@H](Nc2ncnc3sc(-c4ccc(F)c(C#N)c4)cc23)C1`: the figures for the IC50 in data set [1] and in data set [2] were 1.01 µM and greater than 10 µM, respectively.

With `CCC(=O)N1CC[C@H](Nc2ncnc3sc(-c4ccc(S(C)(=O)=O)cc4)cc23)C1`, the IC50 in data set [1] was 0.465 µM; in data set [2] it was greater than 10 µM.

Regarding `CCC(=O)N1CC[C@H](Oc2ncnc3sc(-c4cnc(OC)c(C(F)(F)F)c4)cc23)C1`, the half-maximal inhibitory concentration (IC50) in data set [1] was 0.269 µM; in data set [2], greater than 10 µM.

For `CCC(=O)N1CC[C@H](Nc2ncnc3sc(-c4cnc(OC)nc4)cc23)C1`, the values for the IC50 in [1] and in data set [2] were 0.037 µM and 2.58 µM, respectively.

As for `COc1cc(-c2cc3c(O[C@H]4CCN(C(=O)C5CCC5)C4)ncnc3s2)cnc1OC`, the CLint scaled in data set [3] was found to be 1070 mL/min/kg. Besides, the IC50 is 2.86 µM in [4]; 0.0033 µM in data set [1]; 5.99 µM in data set [5]; 0.392 µM in [2]; 1.96 µM in data set [9]; 28.3 µM in [10]. Moreover, the IC50 in data set [12] is greater than 10 µM; in [13] it was 6.2 µM; in [14], 0.0757 µM. Also, the fraction unbound in [6] is 0.011. Also, the solubility was determined as 5.89 µM (≈ 2.59 µg/mL) in data set [7] and 1.41 µM (≈ 0.621 µg/mL) in data set [11]. The half-life in data set [8] turned out to be 5.09 min.

For the compound `CCC(=O)N1CC[C@H](Nc2ncnc3sc(-c4cncc(S(C)(=O)=O)c4)cc23)C1`, the IC50 in data set [1] is 0.038 µM; in data set [2], 1.21 µM.

Consider `CCC(=O)N1CC[C@H](Oc2ncnc3sc(-c4cnc(OC)c(C#N)c4)cc23)C1`, for which the figures for the IC50 in [1] and in data set [2] were 0.156 µM and 7.33 µM, respectively.

`COc1cc(-c2cc3c(O[C@H]4CCN(C(=O)C5CC5)C4)ncnc3s2)cnc1OC`: the IC50 was 0.01 µM in [1] and 0.322 µM in data set [2].

Turning to `CCC(=O)N1CC[C@H](Nc2ncnc3sc(-c4cnc(OC)c(C)c4)cc23)C1`, the IC50 was found to be 0.045 µM in [1] and 6.29 µM in data set [2].

As for `COc1cc(-c2cc3c(N[C@H]4CCN(C(=O)C5CCCC5)C4)ncnc3s2)cnc1OC`, the values for the IC50 in [1] and in [2] were 0.0085 µM and 0.483 µM, respectively.

For the compound `CCC(=O)N1CC[C@H](Nc2ncnc3sc(-c4cnc(OC)c(F)c4)cc23)C1`, the IC50 worked out at 0.054 µM in data set [1] and 3.41 µM in data set [2].

For the compound `CCC(=O)N1CC[C@H](Nc2ncnc3sc(-c4cccc(S(C)(=O)=O)c4)cc23)C1`, the figures for the IC50 in data set [1] and in data set [2] were 0.128 µM and 3.07 µM, respectively.

On to `COc1cc(-c2cc3c(O[C@H]4CCN(C(=O)C(C)C)C4)ncnc3s2)cnc1OC`, for which the IC50 in data set [1] stood at 0.01 µM; in data set [2], 0.411 µM.

For `CCC(=O)N1CC[C@H](Nc2ncnc3sc(-c4cnc(OC)c(C(F)(F)F)c4)cc23)C1`, the IC50 in data set [1] was determined as 0.103 µM; in [2], 2.06 µM.

On to `CCC(=O)N1CC[C@H](Nc2ncnc3sc(-c4ccc(OC)c(F)c4)cc23)C1`, for which the IC50 in data set [1] was determined as 0.182 µM; in data set [2], 5.64 µM.

Take `CCC(=O)N1CC[C@H](Nc2ncnc3sc(-c4ccc(C#N)nc4)cc23)C1`: the IC50 in [1] was 0.458 µM; in [2], greater than 1 µM.

On to `CCC(=O)N1CC[C@H](Nc2ncnc3sc(-c4ccc(OC)nc4)cc23)C1`, for which the IC50 in [1] was found to be 0.136 µM; in [2] it was 2.9 µM.

As to `CCC(=O)N1CC[C@H](Oc2ncnc3sc(-c4cnc(OC)c(F)c4)cc23)C1`, the figures for the IC50 in [1] and in data set [2] were 0.0975 µM and 7.86 µM, respectively.

For the compound `COc1cc(-c2cc3c(N[C@H]4CCN(C(=O)C(C)C)C4)ncnc3s2)cnc1OC`, the IC50 in data set [1] was determined as 0.055 µM; in data set [2], 0.241 µM.

As for `COc1cc(-c2cc3c(N[C@H]4CCN(C(=O)C5CCC5)C4)ncnc3s2)cnc1OC`, the CLint scaled in data set [3] was 342 mL/min/kg. The IC50 is 1.99 µM in data set [4]; 0.0022 µM in data set [1]; 4.78 µM in [5]; 0.172 µM in data set [2]; 1.37 µM in data set [9]; 20.8 µM in data set [10]. For the same compound, the IC50 was greater than 10 µM in [12], 4.21 µM in data set [13] and 0.0337 µM in data set [14]. Also, the fraction unbound in data set [6] was 0.01. Also, the solubility came to 39.7 µM (≈ 17.4 µg/mL) in data set [7] and 5.67 µM (≈ 2.49 µg/mL) in data set [11]. Further, the half-life in data set [8] turned out to be 15.9 min.

Consider `CCC(=O)N1CC[C@H](Nc2ncnc3sc(-c4cnc(OC)c(C#N)c4)cc23)C1`, for which the IC50 in data set [1] worked out at 0.06 µM; in data set [2] it was 4.03 µM.
